Experimental data reported in patent US20050182084A1, “Method for treating erectile dysfunction” (FUJISAWA PHARMACEUTICAL CO., LTD., priority 2004, published 2005).

Test system: rat cavernous nerve injury model
Assay: recovery of erectile function in rat cavernous nerve injury model (intracavernous pressure)
Format: in vivo
Method: Effect of the compound (Ia) on erectile dysfunction was confirmed by a rat cavernous nerve injury model.
• (1) The recovery of erectile function after cavernous nerve injury was basically assessed in a similar manner to that of BJU International 92, 470-475 (2003). • (2) The compound (Ia), in a form of the solution which was prepared in a similar manner to that of Example 1 mentioned above, or its placebo was given to rats, from 1 day after surgery to 1 day before harvesting for 8 weeks, subcutaneously after being diluted with a suitable amount of HCO-60/EtOH in physiological saline.

In the case of `CO[C@H]1C[C@@H](C)C/C(C)=C/[C@@H](CC(C)=O)C(=O)C[C@H](O)[C@@H](C)[C@@H](/C(C)=C/[C@@H]2CC[C@@H](O)[C@H](OC)C2)OC(=O)[C@@H]2CCCCN2C(=O)C(=O)[C@]2(O)O[C@H]1[C@@H](OC)C[C@H]2C` [Compound (Ia)], the “effect on intracavernous pressure (in words)” value (rat cavernous nerve injury model, conclusion from Table 1) is reported as “remarkable recovery effect on intracavernous pressure” and the “Peak intracavernous pressure(cm H2O) mean ± S.E.” value (rat, cavernous nerve injury, 1 mg/kg subcutaneously, from 1 day after surgery for 8 weeks, n = 7, **P < 0.01 v.s. vehicle-treated (Dunnett's post-test)) is reported as 97.4 ± 8.0** cm H2O.
